Experimental data from patent US9469645B2, “Compounds and compositions for the treatment of parasitic diseases” (Novartis AG, priority 2009, dated 2016).
Like-named read-outs stand apart in the source and are kept apart here.

Tests used:
[1] = tested on: 3D7 P. falciparum strain; assay: parasite proliferation assay in infected red blood cells (SYBR Green I); assay type: cell-based, Plasmodium falciparum; conditions: Plasmodium falciparum, 3D7, Erythrocyte, read-out: EC50 3D7 strain
Excerpt: (§1) Compounds of the invention can be assayed to measure their capacity to inhibit proliferation of parasitemia in infected red blood cells. The proliferation is quantified by the addition of SYBR Green I (INVITROGEN)® dye which has a high affinity for double stranded DNA.
The following assay illustrates the invention without in any way limiting the scope of the invention. This parasite proliferation assay measures the increase in parasite DNA content using a DNA intercalating dye, SYBR Green®.
3D7 P. falciparum strain is grown in complete culturing media until parasitemia reaches 3% to 8% with O+ human erythrocytes. 20 μl of screening media is dispensed into 384 well assay plates. […] 10 μl of lysis buffer (saponin, triton-X, EDTA) containing a 10× solution of SYBR Green I® in RPMI media is dispensed into the plates. The plates are lidded and kept at room temperature overnight for the lysis of the infected red blood cells.

[2] = tested on: W2 strain; assay: parasite proliferation assay in infected red blood cells (SYBR Green I), W2 strain; assay type: cell-based; conditions: Erythrocyte
Excerpt: as §1

| SMILES | EC50 ([1]; 3D7 strain) [nM] | EC50 [2] [nM] | EC50 [1] [nM] |
| --- | --- | --- | --- |
| Cc1cc(C)cc(Nc2c(-c3ccccc3)nc3n2CCN(C(=O)CN)C3)c1 [Compound 2] | 3480 | 3350 | – |
| CC(C)(N)C(=O)N1CCn2c(nc(-c3ccc(F)cc3)c2Nc2ccc(F)cc2)C1 [Compound 3] | 20 | 25 | – |
| NCC(=O)N1CCn2c(nc(-c3ccc(F)cc3)c2Nc2ccc(F)cc2)C1 [Compound 4] | 20 | 23 | – |
| CC(C)(N)C(=O)N1CCn2c(nc(-c3ccc(F)cc3)c2Nc2ccc3c(c2)OCO3)C1 [Compound 5] | 4330 | > 8900 | – |
| NCC(=O)N1CCn2c(nc(-c3ccc(F)cc3)c2NC2CCCC2)C1 [Compound 6] | 4380 | 4640 | – |
| NCC(=O)N1CCn2c(nc(-c3ccccc3)c2NC2CCCC2)C1 [Compound 7] | 15800 | 7780 | – |
| CC(C)(N)C(=O)N1CCn2c(nc(-c3ccccc3)c2Nc2ccccc2)C1 [Compound 8] | 620 | 501 | – |
| COC(=O)c1ccc(Nc2c(-c3ccccc3)nc3n2CCN(C(=O)C(C)(C)N)C3)cc1 [Compound 9] | 13800 | 3990 | – |
| CC(C)(N)C(=O)N1CCn2c(nc(-c3ccccc3F)c2Nc2ccc(F)cc2)C1 [Compound 10] | 1390 | 1280 | – |
| CC(C)(N)C(=O)N1CCn2c(nc(-c3ccccc3)c2Nc2ccc(F)cc2)C1 [Compound 11] | 200 | 168 | – |
| CC(C)(N)C(=O)N1CCn2c(nc(-c3c(F)cc(F)cc3F)c2Nc2ccc(F)cc2)C1 [Compound 12] | 7400 | 2960 | – |
| CC(C)(N)C(=O)N1CCn2c(nc(-c3cc(F)cc(F)c3)c2Nc2ccc(F)cc2)C1 [Compound 13] | 260 | 137 | – |
| CCCCCc1ccc(-c2nc3n(c2Nc2ccc(F)cc2)CCN(C(=O)C(C)(C)N)C3)cc1 [Compound 14] | 3590 | 5870 | – |
| O=C(CN1CCC(C(F)(F)F)CC1)N1CCn2c(nc(-c3ccc(F)cc3)c2Nc2ccc(F)cc2)C1 [Compound 61] | 9240 | – | – |
| NCC(=O)N1CCn2c(nc(-c3ccc(F)cc3)c2Nc2ccc(F)c(Cl)c2)C1 [Compound 78] | 10 | – | – |
| Cc1ccc(Nc2c(-c3ccc(F)cc3)nc3n2CCN(C(=O)C(O)c2ccccc2)C3)cc1 (stereo not drawn) [Compound 82] | – | 7 | – |
| Cc1ccc(Nc2c(-c3ccc(F)cc3)nc3n2CCN(C(=O)CCO)C3)cc1 [Compound 103] | 1020 | – | – |
| Cc1ccc(Nc2c(-c3ccc(F)cc3)nc3n2CCN(C(=O)[C@H]2CCC[C@@H]2O)C3)cc1 [Compound 105] | 850 | – | – |
| Cc1ccc(Nc2c(-c3ccc(F)cc3)nc3n2CCN(C(=O)[C@@H](O)Cc2ccccc2)C3)cc1 [Compound 106] | – | 4 | – |
| Cc1ccc(Nc2c(-c3ccc(F)cc3)nc3n2CCN(C(=O)CC(C)O)C3)cc1 (stereo not drawn) [Compound 108] | 960 | – | – |
| Cc1ccc(Nc2c(-c3ccc(F)cc3)nc3n2CCN(C(=O)[C@H](O)Cc2ccccc2)C3)cc1 [Compound 109] | 40 | – | – |
| Cc1ccc(Nc2c(-c3ccc(F)cc3)nc3n2CCN(C(=O)C(C)(O)c2ccccc2)C3)cc1 (stereo not drawn) [Compound 111] | 20 | – | – |

| SMILES | EC50 ([1]; 3D7 strain) [nM] | EC50 [2] [nM] | EC50 [1] [nM] |
| --- | --- | --- | --- |
| Cc1ccc(Nc2c(-c3ccc(F)cc3)nc3n2CCN(C(=O)C(O)(c2ccccc2)c2ccccc2)C3)cc1 [Compound 112] | – | – | 1430 |
| Cc1ccc(Nc2c(-c3ccc(F)cc3)nc3n2CCN(C(=O)C(C)(C)C(O)c2ccc(C)cc2)C3)cc1 (stereo not drawn) [Compound 119] | 4740 | – | – |
| Cc1ccc(Nc2c(-c3ccc(F)cc3)nc3n2CCN(C(=O)C(O)c2cc(F)cc(F)c2)C3)cc1 (stereo not drawn) [Compound 123] | 30 | – | – |
| Cc1ccc(Nc2c(-c3ccc(F)cc3)nc3n2CCN(C(=O)C(O)c2ccc(O)cc2)C3)cc1 (stereo not drawn) [Compound 130] | 10 | – | – |
| Cc1ccc(Nc2c(-c3ccc(F)cc3)nc3n2CCN(C(=O)[C@@H](N)C(C)C)C3)cc1 [Compound 169] | 40 | – | – |
| NC(C(=O)N1CCn2c(nc(-c3ccc(F)cc3)c2Nc2ccc(Cl)c(F)c2)C1)C(F)(F)F (stereo not drawn) [Compound 194] | 50 | – | – |
| CO[C@@H](C)C(=O)N1CCn2c(nc(-c3ccc(F)cc3)c2Nc2ccc(C)cc2)C1 [Compound 198] | 1360 | – | – |
| Cc1ccc(Nc2c(-c3ccc(F)cc3)nc3n2CCN(C(=O)C2CCCO2)C3)cc1 (stereo not drawn) [Compound 200] | 910 | – | – |
| Cc1ccc(Nc2c(-c3ccc(F)cc3)nc3n2CCN(C(=O)[C@H](O)C(C)C)C3)cc1 [Compound 205] | – | 4 | – |
| CCCCC(=O)OC(C(=O)N1CCn2c(nc(-c3ccc(F)cc3)c2Nc2ccc(C)cc2)C1)c1ccccc1 (stereo not drawn) [Compound 270] | 50 | – | – |
| CN(c1ccc(Cl)c(F)c1)c1c(-c2ccc(F)cc2)nc2n1CCN(C(=O)CN)C2 [Compound 293] | 20 | – | – |
| CC[C@H](C)[C@H](N)C(=O)N1CCn2c(nc(-c3ccc(F)cc3)c2Nc2ccc(Cl)c(F)c2)C1 [Compound 317] | 20 | – | – |
| CC(C)C[C@H](N)C(=O)N1CCn2c(nc(-c3ccc(F)cc3)c2Nc2ccc(Cl)c(F)c2)C1 [Compound 322] | 40 | – | – |
| Cc1ccc(Nc2c(-c3cc(F)ccc3F)nc3n2CCNC3)cc1 [Compound 330] | 4470 | – | – |
| Fc1ccc(-c2nc3n(c2Nc2ccc(F)c(F)c2)CCNC3)cc1 [Compound 331, N-(3,4-difluorophenyl)-2-(4-fluorophenyl)-5,6,7,8-tetrahydroimidazo[1,2-a]pyrazin-3-amine] | 140 | – | – |
| O=C(C(Nc1ccccc1)c1ccccc1)N1CCn2c(nc(-c3ccc(F)cc3)c2Nc2ccc(Cl)c(F)c2)C1 (stereo not drawn) [Compound 332] | 1040 | – | – |
| O=C(Cc1ccccc1OC(F)(F)F)N1CCn2c(nc(-c3ccc(F)cc3)c2Nc2ccc(Cl)c(F)c2)C1 [Compound 333] | 1110 | – | – |
| O=C([C@@H](O)Cc1ccccc1)N1CCn2c(nc(-c3ccc(F)cc3)c2Nc2ccc(Cl)c(F)c2)C1 [Compound 334] | 50 | – | – |
| O=C(Cc1ccc(F)c(C(F)(F)F)c1)N1CCn2c(nc(-c3ccc(F)cc3)c2Nc2ccc(Cl)c(F)c2)C1 [Compound 335] | 2300 | – | – |
| O=C(COc1ccccc1)N1CCn2c(nc(-c3ccc(F)cc3)c2Nc2ccc(Cl)c(F)c2)C1 [Compound 336] | 40 | – | – |
| O=C1CC(C(=O)N2CCn3c(nc(-c4ccc(F)cc4)c3Nc3ccc(Cl)c(F)c3)C2)CCN1 (stereo not drawn) [Compound 337] | > 10000 | – | – |
| O=C([C@@H]1CCCN1)N1CCn2c(nc(-c3ccc(F)cc3)c2Nc2ccc(Cl)c(F)c2)C1 [Compound 338] | 190 | – | – |

| SMILES | EC50 ([1]; 3D7 strain) [nM] | EC50 [2] [nM] | EC50 [1] [nM] |
| --- | --- | --- | --- |
| NC(CC(=O)N1CCn2c(nc(-c3ccc(F)cc3)c2Nc2ccc(Cl)c(F)c2)C1)C(F)(F)F (stereo not drawn) [Compound 339] | 520 | – | – |
| O=C([C@H]1CCCN1)N1CCn2c(nc(-c3ccc(F)cc3)c2Nc2ccc(Cl)c(F)c2)C1 [Compound 340] | 200 | – | – |
| Cc1ccc(C[C@H](N)C(=O)N2CCn3c(nc(-c4ccc(F)cc4)c3Nc3ccc(Cl)c(F)c3)C2)cc1 [Compound 341] | 10 | – | – |
| O=C(C1NCc2ccccc21)N1CCn2c(nc(-c3ccc(F)cc3)c2Nc2ccc(Cl)c(F)c2)C1 (stereo not drawn) [Compound 342] | 5240 | – | – |
| O=C([C@@H]1Cc2ccccc2N1)N1CCn2c(nc(-c3ccc(F)cc3)c2Nc2ccc(Cl)c(F)c2)C1 [Compound 343] | 7500 | – | – |
| N[C@H](CC(=O)N1CCn2c(nc(-c3ccc(F)cc3)c2Nc2ccc(Cl)c(F)c2)C1)Cc1ccc(Br)cc1 [Compound 344] | 210 | – | – |
| COc1ccc(CSC[C@@H](N)C(=O)N2CCn3c(nc(-c4ccc(F)cc4)c3Nc3ccc(Cl)c(F)c3)C2)cc1 [Compound 346] | > 8800 | – | – |
| O=C([C@H]1Cc2ccccc2CN1)N1CCn2c(nc(-c3ccc(F)cc3)c2Nc2ccc(Cl)c(F)c2)C1 [Compound 347] | 5920 | – | – |
| NC(CC(F)(F)F)C(=O)N1CCn2c(nc(-c3ccc(F)cc3)c2Nc2ccc(Cl)c(F)c2)C1 (stereo not drawn) [Compound 348] | 50 | – | – |
| CCCCOCCOCC(=O)N1CCn2c(nc(-c3ccc(F)cc3)c2Nc2ccc(C)cc2)C1 [Compound 349] | 7480 | – | – |
| CCOCC(=O)N1CCn2c(nc(-c3ccc(F)cc3)c2Nc2ccc(C)cc2)C1 [Compound 350] | 660 | – | – |
| COCCOCC(=O)N1CCn2c(nc(-c3ccc(F)cc3)c2Nc2ccc(C)cc2)C1 [Compound 351] | 1240 | – | – |
| Cc1ccc(Nc2c(-c3ccc(F)cc3)nc3n2CC(C)N(C(=O)CN)C3)cc1 (stereo not drawn) [Compound 352] | 10 | – | – |
| CC(C)(N)C(=O)N1CCn2c(nc(-c3cccc(F)c3)c2Nc2ccc(F)c(C#N)c2)C1 [Compound 353] | 210 | – | – |
| CN[C@H](CC(C)C)C(=O)N1CCn2c(nc(-c3ccc(F)cc3)c2Nc2ccc(C)cc2)C1 [Compound 377] | – | 574 | – |
| CC[C@H](N)C(=O)N1CCn2c(nc(-c3ccc(F)cc3)c2Nc2ccc(Cl)c(F)c2)C1 [Compound 393] | 20 | – | – |
| Fc1ccc(-c2nc3n(c2Nc2ccc(F)c(Cl)c2)CCNC3)cc1 [Compound 447] | 230 | – | – |
| N[C@@H](CC1CC1)C(=O)N1CCn2c(nc(-c3ccc(F)cc3)c2Nc2ccc(F)cc2)C1 [Compound 466] | 30 | – | – |
| CC(C)(N)C(=O)N1CCn2c(nc(-c3ccc(F)cc3)c2Nc2ccc(F)c(Cl)c2)C1 [Compound 492] | 50 | – | – |
| Cc1ccc(Sc2c(-c3ccc(F)cc3)nc3n2CCN(C(=O)CN)C3(C)C)cc1 [Compound 713, 2-amino-1-(2-(4-fluorophenyl)-8,8-dimethyl-3-(p-tolylthio)-5,6-dihydroimidazo[1,2-a]pyrazin-7(8H)-yl)ethanone] | 8 | – | – |
| Cc1ccc([S+]([O-])c2c(-c3ccc(F)cc3)nc3n2CCN(C(=O)CN)C3(C)C)cc1 (stereo not drawn) [Compound 721, 2-amino-1-(2-(4-fluorophenyl)-8,8-dimethyl-3-(p-tolylsulfinyl)-5,6-dihydroimidazo[1,2-a]pyrazin-7 (8H)-yl)ethanone] | 42 | – | – |
